Laboratory results taken from patent publication US5380746A, “Bis-(1H-indol-3-YL)-maleinimide derivatives, processes for the preparation thereof and pharmaceutical compositions containing them” (Goedecke Aktiengesellschaft, priority 1989, dated 1995).

Columns and labels:
Assay type in all cases: biochemical
[1] = molecular target: T1, G-kinase (Homo sapiens, UniProt Q13976); assay: inhibition of the G-kinase; settings: read-out: IC values of the inhibition of the G-kinase
T1 sequence (Q13976 1-671): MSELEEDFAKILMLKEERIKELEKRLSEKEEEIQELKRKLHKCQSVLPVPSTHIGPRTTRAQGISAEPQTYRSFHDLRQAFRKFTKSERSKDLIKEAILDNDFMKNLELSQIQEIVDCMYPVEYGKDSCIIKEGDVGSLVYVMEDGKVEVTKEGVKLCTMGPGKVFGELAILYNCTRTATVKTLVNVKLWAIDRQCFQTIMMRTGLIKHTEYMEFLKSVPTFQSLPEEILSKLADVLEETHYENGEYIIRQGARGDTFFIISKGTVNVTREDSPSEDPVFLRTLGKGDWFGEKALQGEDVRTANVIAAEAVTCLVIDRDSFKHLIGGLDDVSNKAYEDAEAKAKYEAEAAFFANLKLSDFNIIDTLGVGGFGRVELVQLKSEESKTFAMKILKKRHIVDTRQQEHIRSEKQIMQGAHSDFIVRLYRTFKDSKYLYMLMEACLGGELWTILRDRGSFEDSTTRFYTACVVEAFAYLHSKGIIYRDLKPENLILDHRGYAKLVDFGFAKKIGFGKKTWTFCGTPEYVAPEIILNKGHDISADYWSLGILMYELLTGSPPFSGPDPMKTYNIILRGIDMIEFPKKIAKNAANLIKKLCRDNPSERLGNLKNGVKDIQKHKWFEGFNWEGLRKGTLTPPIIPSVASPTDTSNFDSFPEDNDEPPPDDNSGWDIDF

[2] = molecular target: A-kinase (Homo sapiens, UniProt P17612); assay: inhibition of the A-kinase; settings: read-out: IC values of the inhibition of the A-kinase
[3] = molecular target: protein kinase C; assay: enzyme assay of protein kinase C; settings: read-out: 50% inhibition at a concentration of, enzyme assay of protein kinase C
[4] = molecular target: MLC-kinase; assay: inhibition of the MLC-kinase; settings: read-out: IC values of the inhibition of the MLC-kinase

IC50 [1]: 15 µM | IC50 [2]: 77 µM | IC50 [3]: 0.14 µM | IC50 [4]: 4.5 µM
Compound: Cn1cc(C2=C(c3c[nH]c4ccccc34)C(=O)NC2=O)c2ccccc21 [Example 1, 2-(1H-Indol-3-yl)-3-(1-methyl-1H-indol-3-yl)maleinimide]
